Experimental findings from patent US10835468B2, “Particular pyridinedicarboxylic acid derivative/antioxidant combination” (L'OREAL, priority 2014, dated 2020) are described below.

The structures appear in SMILES notation. Where “and” joins values, the source holds several entries; their conditions need not be identical. Equal entries are not always repeated.

Holding throughout (type): cell-based
Holding throughout (conditions): 72 hours under normoxia

One experiment concerns BNIP3. In words: Expression of hypoxia-sensitive gene BNIP3 in primary human keratinocytes in culture (RT-qPCR). As for the experimental part:
(§1) The following protocol was followed: the tests were performed on human keratinocytes in culture, seeded on Greiner brand 48-well plates, coated with bovine collagen I. The plates were prepared according to the following procedure: the solution of bovine collagen I at 0.1 mg/ml was prepared by dilution in phosphate-buffered saline (PBS) of the bovine collagen I solution sold by the company Life Technologies. Each well was immersed with 1 ml of this dilution, which was left at the bottom of the wells for 1 hour at 37° C. At the end of the incubation, the collagen solution was removed and the wells were rinsed twice with 1 ml of PBS. The plates were then stored at 4° C. until the time of use. […] Following this culturing and treatment, the cell lawns were washed with phosphate-buffered saline (or PBS) and then lysed using a lysis buffer proposed in the kit from the supplier Qiagen. The RNAs were then extracted using the RNeasy isolation kit and the Qiacube robotic workstation, both sold by the company Qiagen, according to the manufacturer's instructions. The quantity and quality of RNAs were controlled using the LabChip® GX bioanalyser from Perkin-Elmer before performing reverse transcription (RT) using the Qiagen kit and according to the supplier's recommendations (QuantiTect reverse transcription kit). The cDNA obtained following the RT was then amplified by real-time quantitative PCR using a specific kit sold under the commercial brand LightCycler® 480 SYBR Green Master Mix by the company Roche (Cat. No. 14123920) and an LC480 thermocycler (Roche). The PCRs were performed in triplicate (n=3). The information relating to the primers used is presented below. […] EGNL3/[…] Quantitect Assay Primer; RPL13A/QT00089915/Hs_RPL13A-1-SG Quantitect Assay Primer, and the fluorescent probe of brand name SYBR Green sold by the company specified previously. The PCR was performed in three phases: • denaturing phase for 10 minutes at 95° C., • amplification phase which consists of 45 cycles comprising: • a step of denaturing for 30 seconds at 95° C., • a step of hybridization for 30 seconds at 60° C., and • a step of elongation at 72° C. for 30 seconds, • melting phase for ensuring the quality of the hybridizations. The incorporation of SYBR Green into the amplified DNA was measured continuously during the amplification cycles. These measurements make it possible to obtain curves of fluorescence intensity as a function of the PCR cycles and thus to evaluate the relative expression of each marker from the cycle thresholds (Ct), corresponding to the number of cycles required to appropriately detect a fluorescence level. For each marker and for each condition, the relative expression (RE) value was normalized relative to the expression of the reference gene RPL13. The expression of each gene is normalized by that of the “stable referent gene” (or “housekeeping gene” RPL13A, ribosomal gene). The results (“fold change” (Fc)) are expressed relative to the control. The genes used are hypoxia-sensitive (HIF-1 alpha signalling pathway) and are collated in Table 1 below. Three hypoxia-sensitive genes (BNIP3, EGLN3 and CA9) were used in the following examples. Three tests were performed according to the protocol described above for each gene and for each compound or combination.

For a further experiment, the system named is EGLN3. In words: Expression of hypoxia-sensitive gene EGLN3 in primary human keratinocytes in culture (RT-qPCR). As for the experimental part: as §1
A general note: Quantitative PCR measures a nucleic acid by following its amplification.

Another experiment has as its system CA9. Description: Expression of hypoxia-sensitive gene CA9 in primary human keratinocytes in culture (RT-qPCR). The method, then: as §1

Consider `O=C1O[C@H]([C@@H](O)CO)C(O)=C1O` [Vitamin C, reference compound], for which the “BNIP3 expression, fold change relative to the control, mean ± standard deviation” value with BNIP3 (compound 10 μM) is given as “(1.01 ± 0.12)”; in the experiment on BNIP3 (compound 100 μM) it was “(1.12 ± 0.18)”. The “BNIP3 expression, fold change relative to the control, single tests” value was 1.02 and 1.13 and 0.89 with BNIP3 (compound 10 μM); 0.98 and 1.32 and 1.07 in the experiment on BNIP3 (compound 100 μM). The “EGLN3 expression, fold change relative to the control, mean ± standard deviation” value is “(1.07 ± 0.29)” in the experiment on EGLN3 (compound 10 μM) and “(1.24 ± 0.24)” in the experiment with EGLN3 (compound 100 μM). Also, the “EGLN3 expression, fold change relative to the control, single tests” value with EGLN3 (compound 10 μM) was 0.92 and 1.41 and 0.89; in the experiment with EGLN3 (compound 100 μM), 1.05 and 1.51 and 1.16. Also, the “CA9 expression, fold change relative to the control, mean ± standard deviation” value is recorded as “(1.02 ± 0.52)” in the experiment with CA9 (compound 10 μM) and “(1.22 ± 0.42)” with CA9 (compound 100 μM).
Regarding `Oc1ccc(C=Cc2cc(O)cc(O)c2)cc1` [Resveratrol, resveratrol], in the experiment on BNIP3 (compound 0.3 μM), the “BNIP3 expression, fold change relative to the control, mean ± standard deviation” value is “(1.26 ± 0.24)”; the “BNIP3 expression, fold change relative to the control, single tests” value was 1.05 and 1.53 and 1.21. The “BNIP3 expression, fold change relative to the control, mean ± standard deviation” value in the experiment with BNIP3 (compound 1 μM) is on record as “(2.01 ± 0.79)”. Further, in the experiment with EGLN3 (compound 0.3 μM), the “EGLN3 expression, fold change relative to the control, mean ± standard deviation” value is “(1.92 ± 0.55)”; the “EGLN3 expression, fold change relative to the control, single tests” value was 1.31 and 2.36 and 2.10. In addition, in the experiment on EGLN3 (compound 1 μM), the “EGLN3 expression, fold change relative to the control, mean ± standard deviation” value is recorded as “(3.65 ± 1.76)”. Further, in the experiment on CA9 (compound 0.3 μM), the “CA9 expression, fold change relative to the control, mean ± standard deviation” value is “(1.63 ± 0.28)”; the “CA9 expression, fold change relative to the control, single tests” value was 1.82 and 1.75 and 1.31. In the experiment on CA9 (compound 1 μM), the “CA9 expression, fold change relative to the control, mean ± standard deviation” value was “(2.02 ± 0.33)”; the “CA9 expression, fold change relative to the control, single tests” value is 2.34 and 1.97 and 1.75.
As for `CC1=NCC[C@@H](C(=O)O)N1` [Ectoin, ectoin], the “BNIP3 expression, fold change relative to the control, mean ± standard deviation” value in the experiment on BNIP3 (compound 100 μM) is recorded as “(1.62 ± 0.27)”; in the experiment on BNIP3 (compound 300 μM), “(1.62 ± 0.2)”. Also, the “BNIP3 expression, fold change relative to the control, single tests” value with BNIP3 (compound 100 μM) is 1.31 and 1.77; in the experiment on BNIP3 (compound 300 μM), 1.40 and 1.79 and 1.66. In addition, the entries for the “EGLN3 expression, fold change relative to the control, mean ± standard deviation” value in the experiment on EGLN3 (compound 100 μM) and in the experiment on EGLN3 (compound 300 μM) were “(2.90 ± 0.50)” and “(2.62 ± 0.48)”, respectively. For the same molecule, the “EGLN3 expression, fold change relative to the control, single tests” value with EGLN3 (compound 100 μM) is 2.48 and 2.76 and 3.46; in the experiment with EGLN3 (compound 300 μM), 2.07 and 2.82 and 2.97. The “CA9 expression, fold change relative to the control, mean ± standard deviation” value with CA9 (compound 100 μM) is listed as “(3.01 ± 0.64)”; with CA9 (compound 300 μM), “(2.57 ± 0.35)”. Moreover, the “CA9 expression, fold change relative to the control, single tests” value in the experiment with CA9 (compound 100 μM) is 2.73 and 2.55 and 3.74; in the experiment with CA9 (compound 300 μM), 2.23 and 2.54 and 2.93.
For the molecule `CCCCCCCCCCCCCCCC(=O)OC[C@H](O)[C@H]1OC(=O)C(O)=C1O` [Ascorbyl palmitate, ascorbyl palmitate], the results for the “BNIP3 expression, fold change relative to the control, mean ± standard deviation” value with BNIP3 (compound 10 μM) and in the experiment on BNIP3 (compound 30 μM) were “(1.10 ± 0.22)” and “(1.15 ± 0.41)”, respectively. The “BNIP3 expression, fold change relative to the control, single tests” value in the experiment with BNIP3 (compound 10 μM) was 1.01 and 1.35 and 0.95; with BNIP3 (compound 30 μM), 1.04 and 1.6 and 0.81. The “EGLN3 expression, fold change relative to the control, mean ± standard deviation” value with EGLN3 (compound 10 μM) is “(1.35 ± 0.46)”; in the experiment with EGLN3 (compound 30 μM), “(1.16 ± 0.81)”. The “CA9 expression, fold change relative to the control, mean ± standard deviation” value with CA9 (compound 10 μM) is reported as “(1.63 ± 0.38)”; with CA9 (compound 30 μM), “(0.99 ± 0.80)”. Moreover, the “CA9 expression, fold change relative to the control, single tests” value in the experiment with CA9 (compound 10 μM) is 1.65 and 2.00 and 1.25.
In the case of `O=C(O)[C@H]1O[C@@H](Oc2cc3oc(-c4ccccc4)cc(=O)c3c(O)c2O)[C@H](O)[C@@H](O)[C@@H]1O` [Baicalin, baicalin], in the experiment with BNIP3 (compound 3 μM), the “BNIP3 expression, fold change relative to the control, mean ± standard deviation” value is “(1.11 ± 0.15)”; the “BNIP3 expression, fold change relative to the control, single tests” value was 0.99 and 1.27 and 1.06. For the same molecule, in the experiment on BNIP3 (compound 30 μM), the “BNIP3 expression, fold change relative to the control, mean ± standard deviation” value is listed as “(1.23 ± 0.15)”; the “BNIP3 expression, fold change relative to the control, single tests” value was 1.14 and 1.41 and 1.15. In the experiment on EGLN3 (compound 3 μM), the “EGLN3 expression, fold change relative to the control, mean ± standard deviation” value is given as “(1.19 ± 0.17)”; the “EGLN3 expression, fold change relative to the control, single tests” value is 1.00 and 1.33 and 1.25. Also, in the experiment with EGLN3 (compound 30 μM), the “EGLN3 expression, fold change relative to the control, mean ± standard deviation” value was “(2.07 ± 0.39)”; the “EGLN3 expression, fold change relative to the control, single tests” value was 1.70 and 2.47 and 2.03. In the experiment on CA9 (compound 3 μM), the “CA9 expression, fold change relative to the control, mean ± standard deviation” value is on record as “(1.06 ± 0.28)”; the “CA9 expression, fold change relative to the control, single tests” value is 1.27 and 1.18 and 0.74. In the experiment on CA9 (compound 30 μM), the “CA9 expression, fold change relative to the control, mean ± standard deviation” value is given as “(0.91 ± 0.27)”; the “CA9 expression, fold change relative to the control, single tests” value was 1.06 and 1.07 and 0.6.
Turning to `CCOC(=O)c1ccnc(C(=O)OCC)c1` [Stemoxydine, diethyl 2,4-pyridinedicarboxylate], in the experiment with BNIP3 (compound 300 μM), the “BNIP3 expression, fold change relative to the control, mean ± standard deviation” value is on record as “(1.76 ± 0.32)”; the “BNIP3 expression, fold change relative to the control, single tests” value was 1.51 and 1.65 and 2.13. Also, in the experiment on EGLN3 (compound 300 μM), the “EGLN3 expression, fold change relative to the control, mean ± standard deviation” value is reported as “(2.60 ± 0.83)”; the “EGLN3 expression, fold change relative to the control, single tests” value is 2.15 and 2.09 and 3.56. For the same molecule, in the experiment with CA9 (compound 300 μM), the “CA9 expression, fold change relative to the control, mean ± standard deviation” value is on record as “(4.53 ± 1.15)”; the “CA9 expression, fold change relative to the control, single tests” value is 3.87 and 3.86 and 5.86.
